# Laboratory results reported in US7956041B2, “Prophylactic and therapeutic agent of diabetes mellitus” (Ajinomoto Co., Inc., priority 2002, dated 2011).
# Legend:
# Male Wistar rats [1] = experiment: Test Example 2A: excretion action of urine sugar in rat; assay type: in vivo; conditions: urine collected 24 hours
# Experimental: Male Wistar rats aged 5 weeks (purchased from Charles River Japan, Inc.) were acclimatized in metabolic cages for one week, for use at this experiment. The test compounds suspended in olive oil were dosed at 5 ml per 1 kg rat body weight.
# After the rats were starved for 4 hours, the test compounds were orally given to the rats at 11 am. Immediately after dosing until 24 hours later, urine was collected. The volume of urine was measured. Then, urine sugar concentration was assayed by glucose oxidase method, to calculate the glucose excretion into urine per individual per day.
# [2] = tested on: glucose-loaded rats (Wistar rats); experiment: Example I: blood glucose time course after oral glucose loading in rats; assay type: in vivo, rat; conditions: glucose 1 g/kg p.o.
# Experimental: Wistar rats (age of 7 weeks; male) were divided into groups with matched body weights. After 17-hour starvation, glucose was orally given at 1 g/kg to the animals. Immediately after the administration, the inhibitor A of renal glucose reabsorption or the inhibitor B of renal glucose reabsorption (A at 30 mg/kg or 60 mg/kg; B at 30 mg/kg or 80 mg/kg) or glibenclamide (1 mg/kg or 2 mg/kg) or nateglinide (50 mg/kg or 80 mg/kg) was orally given. Additionally, a group on the combined use of both of an inhibitor of renal glucose reabsorption and a hypoglycemic agent was also prepared. A vehicle was orally given to a control group after glucose administration.
# Blood glucose was measured in a time course.
# Male Wistar rats [3] = experiment: Test Example 1B: excretion action of urine sugar in rat; assay type: in vivo; conditions: oral administration, 24 hours
# Experimental: Male Wistar rats aged 5 weeks (purchased from Charles River Japan, Inc.) were acclimatized in metabolic cages for one week, for use at this experiment. The test compounds suspended in olive oil were prepared into solutions to a dose of 5 ml per 1 kg rat body weight. After the rats were starved for 4 hours, the test compounds were orally given at 10, 30 and 100 mg/kg to the rats at 11 am. Immediately after dosing until 24 hours later, urine was collected. The volume of urine was measured. Then, urine glucose concentration was assayed by glucose oxidase method, to calculate the glucose excretion into urine per individual per day. As a positive control, 3-(5-benzo[b]furanyl)-2′-(6-o-methoxycarbonyl-β-D-glucopyranosyloxy)-6′-hydroxy-4′-methylpropiophenone [under a different name of 3-(benzo[b]furan-5-yl)-2′,6′-dihydroxy-4′-methylpropiophenone 2′-o-(6-o-methoxycarbonyl-β-D-glucopyranoside)] was used.
# [4] = tested on: Type 2 diabetic model GK rats; experiment: Example III: blood glucose on day 25 of once daily dosing in GK rats; assay type: in vivo, rat; conditions: once daily p.o., FIG. 4
# Experimental: Type 2 diabetic model GK rats (age of 7 weeks; male) were divided into groups with matched blood glucose levels and body weights, for once daily oral administration of the inhibitor A of renal glucose reabsorption (30 mg/kg) or glibenclamide at 3 or 6 mg/kg. Further, a group given with a combination of the inhibitor A of renal glucose reabsorption at 30 mg/kg and glibenclamide at 3 mg/kg was prepared. These agents were orally given once daily at the same time period as in the group administered with a single one agent. Only a vehicle was given orally to a control group. On day 25 after the start of administration, blood glucose was assayed sequentially, to compare the groups in terms of the resulting blood glucose levels.
# [5] = tested on: glucose-loaded mice (KK mice); experiment: Example II: blood glucose time course after oral glucose loading in KK mice; assay type: in vivo, mouse; conditions: glucose 1 g/kg p.o., FIG. 3; for Blood glucose 30 minutes after glucose loading / Blood glucose 60 minutes after glucose loading / Blood glucose 2 hours after glucose loading and thereafter: metformin 200 mg/kg, inhibitor A 30 mg/kg p.o., vs control; for Pattern of glycemic suppression at elevated dose: metformin 300 mg/kg, inhibitor A 45 mg/kg
# Experimental: KK mice (age of 25 weeks; male) fed with a commercially available high-calories feed for breeding (CMF; Oriental Yeast) were divided into groups with matched body weights. After starvation for 17 hours, glucose was orally given at 1 g/kg. Immediately thereafter, the inhibitor A of renal glucose reabsorption (30 mg/kg or 45 mg/kg) or metformin (200 mg/kg or 300 mg/kg) was orally given. Additionally, a group given with the inhibitor A of renal glucose reabsorption (30 mg/kg) and metformin (200 mg/kg) was prepared. A vehicle was orally given to a control group after glucose dosing.
# Blood glucose level was assayed in a time course.
# [6] = tested on: Type 2 diabetes model Zucker diabetic fatty rats; experiment: Example V: insulin content in pancreas of Zucker diabetic fatty rats (ELISA); assay type: in vivo, rat; conditions: twice daily p.o., day 39, starved 18 h, inhibitor A 30 mg/kg and/or metformin 200 mg/kg, FIG. 5
# Experimental: Type 2 diabetes model Zucker diabetic fatty rats (age 15 weeks) were divided into groups with matched blood glucose levels and body weights. Subsequently, the inhibitor A of renal glucose reabsorption at 30 mg/kg or metformin at 200 mg/kg was orally given twice daily. Further, a group to be on a combined use of the inhibitor A of renal glucose reabsorption (30 mg/kg) and metformin (200 mg/kg) was prepared. The agents were orally given twice daily at the same time period as in the case of the groups administered with a single one of these agents. Only a vehicle was orally given twice daily to the animals in a control group. On day 39 from the start of administration, the animals were starved for 18 hours. Then, pancreas was resected from the animals, for the assay of insulin in pancreas homogenates by ELISA, to compare the groups in terms of insulin content in pancreas.
# Zucker diabetic fatty rat is a type 2 diabetic model animal, where the sustainment of hyperglycemic conditions induces a high concentration of glycated hemoglobin so that the aging of the model animal involves the decrease of the insulin content in pancreas.
# [7] = nateglinide 50 mg/kg and/or inhibitor B 30 mg/kg p.o., vs vehicle, FIG. 2
# [8] = glibenclamide 3 mg/kg and/or inhibitor A 30 mg/kg
# [9] = glibenclamide 1 mg/kg and/or inhibitor A 30 mg/kg p.o., vs vehicle, FIG. 1
# [10] = glibenclamide 2 mg/kg, inhibitor A 60 mg/kg, FIG. 1
smiles,measurement,setting,value
"Cc1[nH]nc(O[C@@H]2O[C@H](CO)[C@@H](O)[C@H](O)[C@H]2O)c1Cc1ccc(OC(C)C)cc1 [Reference Production Example 1, 4-[(4-isopropoxyphenyl)methyl]-5-methyl-1H-pyrazole-3-o-β-D-glucopyranoside, reference compound]",Excreted urine sugar,Male Wistar rats [1]; Dose 100 mg/kg p.o.,14 mg
"CCc1ccc(Cc2c(O[C@@H]3O[C@H](COC(=O)OC)[C@@H](O)[C@H](O)[C@H]3O)nn(Cc3ccc(OC)cc3)c2C(F)(F)F)cc1 [Production Example 6-A, 4′-[(4′-ethylphenyl)methyl]-1′-[(4′-methoxyphenyl)methyl]-5′-trifluoromethyl-1H-pyrazole-3′-o-(6-carbomethoxy)-β-D-glucopyranoside]",Excreted urine sugar,Male Wistar rats [1]; Dose 100 mg/kg p.o.,59 mg
"CCc1ccc(Cc2c(O[C@@H]3O[C@H](COC(=O)OC)[C@@H](O)[C@H](O)[C@H]3O)nn(Cc3ccccc3)c2C(F)(F)F)cc1 [Production Example 4-A, 4′-[(4′-ethylphenyl)methyl]-1′-benzyl-5′-trifluoromethyl-1H-pyrazole-3′-o-(6-carbomethoxy)-β-D-glucopyranoside]",Excreted urine sugar,Male Wistar rats [1]; Dose 100 mg/kg p.o.,27 mg
CC(C)[C@H]1CC[C@H](C(=O)N[C@H](Cc2ccccc2)C(=O)O)CC1 [nateglinide],Blood glucose 30 minutes after glucose loading,[2]; [7],more highly suppressed hyperglycemia immediately after glucose loading (30 minutes and 60 minutes)
same,Blood glucose 60 minutes after glucose loading,[2]; [7],more highly suppressed hyperglycemia immediately after glucose loading (30 minutes and 60 minutes)
same,Blood glucose 120 minutes after glucose loading and thereafter,"[2]; nateglinide 50 mg/kg p.o., vs vehicle, FIG. 2",did not lower the blood glucose level 120 minutes after glucose loading and thereafter
same,Pattern of glycemic suppression at increased dose,"[2]; nateglinide 80 mg/kg, inhibitor B 80 mg/kg, FIG. 2",the pattern of glycemic suppression did not change even by the elevation of the dose
"CCc1ccc(Cc2c(OC3OC(COC(=O)OC)C(O)C(O)C3O)nn(C(CF)CF)c2C(F)(F)F)cc1 [Production Example 2B, 4′-[(4′-ethylphenyl)methyl]-1′-(1′,3′-difluoro-2′-propyl)-5′-(trifluoromethyl)-1H-pyrazole-3′-o-(6-o-methoxycarbonyl-β-D-glucopyranoside)]",Excreted urine sugar,Male Wistar rats [3]; Dose 10 mg/kg,136 mg
same,Excreted urine sugar,Male Wistar rats [3]; Dose 30 mg/kg,272 mg
same,Excreted urine sugar,Male Wistar rats [3]; Dose 100 mg/kg,524 mg
"CCc1ccc(Cc2c(O[C@@H]3O[C@H](COC(=O)OC)[C@@H](O)[C@H](O)[C@H]3O)nn(C(C)C)c2C)cc1 [Production Example 16-A, 4′-[(4-ethylphenyl)methyl]-1′-isopropyl-5′-methyl-1H-pyrazole-3′-o-(6-carbomethoxy)-β-D-glucopyranoside]",Excreted urine sugar,Male Wistar rats [1]; Dose 3 mg/kg p.o.,28 mg
same,Excreted urine sugar,Male Wistar rats [1]; Dose 10 mg/kg p.o.,263 mg
same,Excreted urine sugar,Male Wistar rats [1]; Dose 30 mg/kg p.o.,294 mg
same,Excreted urine sugar,Male Wistar rats [1]; Dose 100 mg/kg p.o.,598 mg
COc1ccc(Cl)cc1C(=O)NCCc1ccc(S(=O)(=O)NC(=O)NC2CCCCC2)cc1 [glibenclamide],Blood glucose level on day 25,[4]; [8],no difference was observed from the vehicle-dosed group in terms of the blood glucose levels
same,Blood glucose level on day 25,[4]; glibenclamide 6 mg/kg,did not produce any difference in blood glucose level from the vehicle-dosed group
same,Blood glucose 120 minutes after glucose loading and thereafter,[2]; [9],lowered blood glucose 120 minutes after glucose loading and thereafter
same,Blood glucose immediately after glucose loading (30 minutes),[2]; [9],did not suppress hyperglycemia immediately after glucose loading
same,Pattern of glycemic suppression at increased dose,[2]; [10],did not change changed the pattern of glycemic suppression
"CN(C)C(=N)N=C(N)N [metformin, reference compound]",Blood glucose 30 minutes after glucose loading,[5],did not suppress the increase of blood glucose in the mice 30 minutes after glucose loading
same,Blood glucose 60 minutes after glucose loading,[5],suppressed the increase 60 minutes later and thereafter
same,Blood glucose 2 hours after glucose loading and thereafter,[5],suppressed the increase 60 minutes later and thereafter
same,Pattern of glycemic suppression at elevated dose,[5],The pattern of glycemic suppression did not change even when the dose was elevated
same,Insulin content in pancreas,[6],no difference was observed in insulin content in spleen
"CCc1ccc(Cc2c(O[C@@H]3O[C@H](COC(=O)OC)[C@@H](O)[C@H](O)[C@H]3O)nn(-c3ccccc3)c2C(F)(F)F)cc1 [Production Example 8-A, 4′-[(4′-ethylphenyl)methyl]-1′-phenyl-5′-trifluoromethyl-1H-pyrazole-3′-o-(6-carbomethoxy)-β-D-glucopyranoside]",Excreted urine sugar,Male Wistar rats [1]; Dose 100 mg/kg p.o.,4.1 mg
CCc1ccc(Cc2c(O[C@@H]3O[C@H](CO)[C@@H](O)[C@H](O)[C@H]3O)nn(C3CCC3)c2C(F)(F)F)cc1 [1′-cyclobutyl-4′-[(4-ethylphenyl)methyl]-5′-trifluoromethyl-1H-pyrazole-3′-o-β-D-glucopyranoside],Blood glucose level on day 25,[4]; [8],"significantly lowered, compared with the group given the vehicle"
same,Blood glucose immediately after glucose loading (30 minutes),[2]; [9],suppressed hyperglycemia observed in the vehicle group immediately after glucose loading
same,Pattern of glycemic suppression at increased dose,[2]; [10],The pattern of glycemic suppression did not change even when the dose was elevated
same,Blood glucose 30 minutes after glucose loading,[5],could suppress hyperglycemia 30 minutes and 60 minutes after glucose loading
same,Blood glucose 60 minutes after glucose loading,[5],could suppress hyperglycemia 30 minutes and 60 minutes after glucose loading
same,Blood glucose 2 hours after glucose loading and thereafter,[5],could not suppress the blood glucose level 2 hours later and thereafter
same,Pattern of glycemic suppression at elevated dose,[5],the pattern of glycemic suppression did not change even when the dose was elevated
same,Insulin content in pancreas,[6],no difference was observed in insulin content in spleen
"COC(=O)OC[C@H]1O[C@@H](Oc2nn(C(C)C)c(C)c2Cc2ccc(OC)c(F)c2)[C@H](O)[C@@H](O)[C@@H]1O [Production Example 10-A, 4′-[(3′-fluoro-4′-methoxyphenyl)methyl]-1′-isopropyl-5′-methyl-1H-pyrazole-3′-o-(6-carbomethoxy)-β-D-glucopyranoside]",Excreted urine sugar,Male Wistar rats [1]; Dose 100 mg/kg p.o.,734 mg
"COC(=O)OC[C@H]1O[C@@H](Oc2nn(C(C)C)c(C)c2Cc2ccc(C)c(F)c2)[C@H](O)[C@@H](O)[C@@H]1O [Production Example 14-A, 4′-[(3′-fluoro-4′-methylphenyl)methyl]-1′-isopropyl-5′-methyl-1H-pyrazole-3′-o-(6-carbomethoxy)-β-D-glucopyranoside]",Excreted urine sugar,Male Wistar rats [1]; Dose 100 mg/kg p.o.,918 mg
